{"source": "paper PMC10813319", "about": "(Biomedicines, 2024)", "test_system": "PrP^C overexpression-induced cofilactin rods in rat hippocampal neurons"}
{"smiles": "C[C@H](O)[C@@H](N)C(=O)N[C@@H](C(=O)N[C@H](CC(N)=O)C(=O)N[C@H](Cc1ccc(O)cc1)C(=O)N[C@@H](C(=O)O)[C@H](C)O)[C@H](C)O", "note": "[RAP-103]", "values": [{"measurement": "Rod formation induced by PrP^C overexpression, 4-day treatment", "value": "blocked"}, {"measurement": "Rod formation induced by PrP^C overexpression, treatment for last day only", "value": "reversed"}]}
